Measured values as given in US7687079B2, “Methods of treating ileus” (priority 2002, dated 2010).
“Also recorded” adds a separate entry of the source.

Experiments:
[1] = system: mice subjected to surgical manipulation of the small intestine; assay: intestinal transit of fluorescein-labeled dextran after intestinal manipulation (IM); type: in vivo, mouse
From the text: (§1) Surgical Manipulation. Mice were anesthetized with inhaled isoflurane and the abdomen opened by midline laparotomy. The small intestine was eventrated and gently compressed along its entire length using moistened sterile cotton applicators. This procedure is designed to simulate “running” of the bowel commonly performed during abdominal surgery in the clinical setting. The bowel was repositioned in the abdominal cavity and the incision closed by two layers of continuous sutures. The duration of the procedure was approximately 15 minutes and the animals moved freely about their cage within 20 minutes of withdrawal of anesthetic.
CO Inhalation Treatment. Mice housed in cages were placed in plexiglass chambers that were continuously ventilated with air or with air containing CO (250 ppm). […]
Mice were anesthetized and killed by exsanguination at the end of the 24-hour chamber treatment with CO or room air. In vitro circular muscle mechanical activity was measured as previously described in Eskandari et al. (Am. J. Physiol. 273:G727-G734 (1997)). […] Contractile activity was calculated by integrating the area under the trace. […] Intestinal transit was measured in controls and manipulated animals 24 hours postoperatively by evaluating the intestinal distribution of a non-absorbable fluorescein-labeled dextran (MW 70,000). […]

[2] = system: MPO-positive leukocytes in intestinal muscularis; assay: myeloperoxidase histochemistry, leukocyte recruitment into intestinal muscularis after SITx; type: in vivo, rat
Method: Muscularis whole mounts were prepared from the mid small intestine collected 24 hours post-operatively. Segments of intestine were immersed in KRB in a Sylgaard™-lined glass dish and pinned without stretching along the mesenteric border. The length and width of the segments were measured with a caliper. The […] was then opened along the mesenteric border and stretched to 150% of the length and 250% of the width. The mucosa and submucosa were removed using fine forceps, and the remaining tissue fixed in 100% denatured ethanol for 30 minutes. […] Tissues were mounted on glass slides using Gel/Mount™ (Biomedia Corp., Foster City, Calif.), cover-slipped and inspected by light microscopy (Nikon FXA, Fryer, Huntley, Ill.) at a magnification of 200×. Numbers of MPO-positive PMN's infiltrating the muscularis extemae were determined from the mean counts collected from five to six adjacent optical fields centered between the mesenteric and anti-mesenteric borders.

[3] = general observations after intestinal manipulation and CO exposure; type: in vivo, mouse; settings: mice, CO 250 ppm, 1 hour before and 24 hours after laparotomy
From the text: as §1
CO Inhalation Treatment. Mice housed in cages were placed in plexiglass chambers that were continuously ventilated with air or with air containing CO (250 ppm). A sampling port was provided to continuously monitor carbon monoxide concentrations within the chamber. Animals had free access to food and water at all times. Mice were exposed to CO or air 1 hour prior to laparotomy, removed for surgical manipulation, and then returned to the chamber for 24 hours. Mice not undergoing surgery were removed from the chamber for a similar length of time and then returned to the chamber for 24 hours.

In the case of `[C-]#[O+]` [CO, carbon monoxide], the “intestinal transit (GC, distribution of labeled dextran)” value ([1]; IM + CO 250 ppm vs IM, 24 hours postoperatively) is reported as “significantly improved; also recorded: more distal distribution; also recorded: significant increase”, the intestinal transit ([1]; unoperated mice, CO 250 ppm alone) is reported as “slight insignificant shift” and the MPO-positive cells ([2]; CO-treated control rats (unoperated)) is reported as “rare”. The “mean number of MPO positive cells” value ([2]; SITx + CO, 24 hours after SITx, not statistically significant (p=0.08, n=6)) was “decreased”, the Inflammatory infiltrates ([2]; SITx + CO, Table 2) was 21 ± 3.2 /200x field and the “mortality or morbidity associated with the CO exposure regime” value [3] was “No mortality or morbidity”.
